Reference: US12428406B2 (PMV Pharmaceuticals, Inc., priority 2019, dated 2025)

Molecular target: T1, p53 Y220C (Homo sapiens, UniProt P04637, Y220C)
T1 construct: The recombinant protein was a truncation mutant containing only amino acids 94-312 of p53; made in house; host or cells: E. coli
Assay: In vitro DNA binding activity assay (HTRF / TR-FRET): stabilization of p53 Y220C and increase of its DNA binding activity
Type: biochemical
Conditions: recombinant His-tagged p53 Y220C DNA binding domain (aa 94-312), biotin-labeled consensus DNA, incubated at 27° C. or 29° C. for 60 min
Procedure, shortened: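 His-tagged p53 Y220C, E. coli-expressed, binding biotin-labeled consensus DNA measured by HTRF (anti-His-APC, streptavidin-europium). Compounds from 4.5 mM DMSO stocks, 3-fold serial dilutions; incubations at room temperature 15 min, then 20 min. SC150 = concentration raising DNA binding by 50%.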

T1 sequence (P04637 94-312, change not shown): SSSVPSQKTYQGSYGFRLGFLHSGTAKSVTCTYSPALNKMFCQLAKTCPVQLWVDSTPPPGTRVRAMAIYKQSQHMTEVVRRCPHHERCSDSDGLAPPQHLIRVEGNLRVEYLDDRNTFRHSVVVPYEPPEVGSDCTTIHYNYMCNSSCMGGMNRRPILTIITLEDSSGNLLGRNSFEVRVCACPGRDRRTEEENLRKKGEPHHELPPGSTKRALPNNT

| SMILES | SC150 (concentration of the compound required to increase the DNA binding activity by 50%) |
| --- | --- |
| COc1cc(S(C)(=O)=O)ccc1NCC#Cc1cc2c(NC(=O)Nc3ccncc3)cccc2n1CC(F)(F)F [Compound 11A, 1-(2-(3-((2-methoxy-4-(methylsulfonyl)phenyl)amino)prop-1-yn-1-yl)-1-(2,2,2-trifluoroethyl)-1H-indol-4-yl)-3-(pyridin-4-yl)urea] | ++++ (++++ = 0.2 μM ≤ SC150 < 1 μM) |
| CCNC(=O)c1ccc(NCC#Cc2cc3c(N[C@@H]4CCNC[C@@H]4F)cccc3n2CC(F)(F)F)c(OC)c1 [Compound 1062A, N-ethyl-4-{[3-(4-{[(3S,4R)-3-fluoropiperidin-4-yl]amino}-1-(2,2,2-trifluoroethyl)-1H-indol-2-yl)prop-2-yn-1-yl]amino}-3-methoxybenzamide] | + (+ = 0 μM ≤ SC150 < 0.05 μM) |
| CN(C)[C@H]1CC[C@@H](Nc2cccc3c2cc(C#CCNc2ccc(S(C)(=O)=O)cc2OCC(F)(F)F)n3CC(F)(F)F)CC1 [Compound 93A, (1S,4S)-N^4-[2-(3-{[4-methanesulfonyl-2-(2,2,2-trifluoroethoxy)phenyl]amino}prop-1-yn-1-yl)-1-(2,2,2-trifluoro-ethyl)-1H-indol-4-yl]-N^1,N^1-dimethylcyclo-hexane-1,4-diamine] | + (+ = 0 μM ≤ SC150 < 0.05 μM) |
| COc1cc(S(=O)(=O)NC(C)=O)ccc1NCC#Cc1cc2c(N[C@H]3CC[C@H](N4CC5(CCOCC5)C4)CC3)cccc2n1CC(F)(F)F [Compound 305A, N-((4-((3-(4-(((1R,4R)-4-(7-oxa-2-azaspiro[3.5]nonan-2-yl)cyclohexyl)amino)-1-(2,2,2-trifluoroethyl)-1H-indol-2-yl)prop-2-yn-1-yl)amino)-3-methoxyphenyl)sulfonyl)acetamide] | + (+ = 0 μM ≤ SC150 < 0.05 μM) |
| COc1cc(C(=O)NC2CCOCC2)ccc1NCC#Cc1cc2c(N[C@H]3CCN(C)C[C@H]3F)cccc2n1CC(F)(F)F (racemic) [Compound 818A, rac-4-{[3-(4-{[(3R,4S)-3-fluoro-1-methylpiperidin-4-yl]amino}-1-(2,2,2-trifluoroethyl)-1H-indol-2-yl)prop-2-yn-1-yl]amino}-3-methoxy-N-(oxan-4-yl)benzamide] | + (+ = 0 μM ≤ SC150 < 0.05 μM) |
| COc1cc(NC2CCOCC2)c2cc(C#CCNc3ccc(S(N)(=O)=O)cc3OC)n(CC(F)(F)F)c2c1 [Compound 1013A, 3-methoxy-4-[(3-{6-methoxy-4-[(oxan-4-yl)amino]-1-(2,2,2-trifluoroethyl)-1H-indol-2-yl}prop-2-yn-1-yl)amino]benzene-1-sulfonamide] | +++ (+++ = 0.1 μM ≤ SC150 < 0.2 μM) |
| COc1cc(C(=O)O)ccc1NCC#Cc1cc2c(N[C@H]3CCN(C(C)(C)C)C[C@H]3F)cccc2n1CC(F)(F)F [Compound 1071A, 4-{[3-(4-{[(3R,4S)-1-tert-butyl-3-fluoropiperidin-4-yl]amino}-1-(2,2,2-trifluoroethyl)-1H-indol-2-yl)prop-2-yn-1-yl]amino}-3-methoxybenzoic acid] | + (+ = 0 μM ≤ SC150 < 0.05 μM) |
| CNC(=O)c1ccc(NCC#Cc2cc3c(N[C@H]4CC[C@H](N5CCC(C(F)(F)F)CC5)CC4)cccc3n2CC(F)(F)F)c(OC)c1 [Compound 438A, 3-methoxy-N-methyl-4-{[3-(4-{[(1R,4R)-4-[4-(trifluoro-methyl)piperidin-1-yl]cyclohexyl]amino}-1-(2,2,2-trifluoroethyl)-1H-indol-2-yl)prop-2-yn-1-yl]amino}benzamide] | + (+ = 0 μM ≤ SC150 < 0.05 μM) |
| CNC(=O)c1cc(OC)c(NCC#Cc2cc3c(N[C@@H]4CCN(C)C[C@@H]4F)cccc3n2CC(F)(F)F)cn1 [Compound 1065A, 5-{[3-(4-{[(3S,4R)-3-fluoro-1-methylpiperidin-4-yl]amino}-1-(2,2,2-trifluoroethyl)-1H-indol-2-yl)prop-2-yn-1-yl]amino}-4-methoxy-N-methylpyridine-2-carboxamide] | + (+ = 0 μM ≤ SC150 < 0.05 μM) |
| CNC(=O)c1ccc(NCC#Cc2cc3c(N[C@@H]4CCN(C)C[C@@H]4F)cccc3n2CC(F)(F)F)c(OC)c1 [Compound 804A, 4-{[3-(4-{[(3S,4R)-3-fluoro-1-methylpiperidin-4-yl]amino}-1-(2,2,2-trifluoroethyl)-1H-indol-2-yl)prop-2-yn-1-yl]amino}-3-methoxy-N-methylbenzamide] | + (+ = 0 μM ≤ SC150 < 0.05 μM) |
| CCOc1cc(C(N)=O)ccc1NCC#Cc1cc2c(N[C@@H]3CCN(C)C[C@@H]3F)cccc2n1CC(F)(F)F [Compound 1059A, 3-ethoxy-4-{[3-(4-{[(3S,4R)-3-fluoro-1-methylpiperidin-4-yl]amino}-1-(2,2,2-trifluoroethyl)-1H-indol-2-yl)prop-2-yn-1-yl]amino}benzamide] | + (+ = 0 μM ≤ SC150 < 0.05 μM) |

Further lines, results first:

| SC150 (concentration of the compound required to increase the DNA binding activity by 50%) | SMILES |
| --- | --- |
| + (+ = 0 μM ≤ SC150 < 0.05 μM) | CCS(=O)(=O)c1ccc(NCC#Cc2cc3c(NC4CCN(CC(O)COC)CC4)cccc3n2CC(F)(F)F)c(OC)c1 (stereo not shown) [Compound 662A, 1-(4-{[2-(3-{[4-(ethanesulfonyl)-2-methoxyphenyl]amino}prop-1-yn-1-yl)-1-(2,2,2-trifluoroethyl)-1H-indol-4-yl]amino}piperidin-1-yl)-3-methoxypropan-2-ol] |
| ++++ (++++ = 0.2 μM ≤ SC150 < 1 μM) | COc1cc(S(C)(=O)=O)ccc1NCC#Cc1cc2c(NC(=O)NC3CCN(C4CCOCC4)CC3)cccc2n1CC(F)(F)F [Compound 14A, 3-(2-{3-[(4-methanesulfonyl-2-methoxyphenyl)amino]prop-1-yn-1-yl}-1-(2,2,2-trifluoroethyl)-1H-indol-4-yl)-1-[1-(oxan-4-yl)piperidin-4-yl]urea] |
| + (+ = 0 μM ≤ SC150 < 0.05 μM) | COc1cc(S(=O)(=O)N2CCOCC2)ccc1NCC#Cc1cc2c(N[C@H]3CC[C@H](N(C)C)CC3)cccc2n1CC(F)(F)F [Compound 67A, (1R,4R)-N^4-[2-(3-{[2-methoxy-4-(morpholine-4-sulfonyl)phenyl]amino}prop-1-yn-1-yl)-1-(2,2,2-trifluoro-ethyl)-1H-indol-4-yl]-N^1,N^1-dimethyl-cyclohexane-1,4-diamine] |
| + (+ = 0 μM ≤ SC150 < 0.05 μM) | COc1cc(S(C)(=O)=O)ccc1NCC#Cc1cc2c(NC3CCN(C[C@@H](O)CO)CC3)cccc2n1CC(F)(F)F [Compound 557A, (2R)-3-{4-[(2-{3-[(4-methanesulfonyl-2-methoxyphenyl)amino]prop-1-yn-1-yl}-1-(2,2,2-trifluoroethyl)-1H-indol-4-yl)amino]piperidin-1-yl}propane-1,2-diol] |
| +++ (+++ = 0.1 μM ≤ SC150 < 0.2 μM) | COc1ccc(S(C)(=O)=O)cc1NCC#Cc1cc2c(NC3CCN(C)CC3)cccc2n1CC(F)(F)F [Compound 495A, 2-{3-[(5-methanesulfonyl-2-methoxyphenyl)amino]prop-1-yn-1-yl}-N-(1-methylpiperidin-4-yl)-1-(2,2,2-trifluoroethyl)-1H-indol-4-amine] |
| + (+ = 0 μM ≤ SC150 < 0.05 μM) | COc1cc(S(=O)(=O)N(CCO)CCO)ccc1NCC#Cc1cc2c(NC3CCN(C)CC3)cccc2n1CC(F)(F)F [Compound 483A, N,N-bis(2-hydroxyethyl)-3-methoxy-4-[(3-{4-[(1-methylpiperidin-4-yl)amino]-1-(2,2,2-trifluoroethyl)-1H-indol-2-yl}prop-2-yn-1-yl)amino]benzene-1-sulfonamide] |
| + (+ = 0 μM ≤ SC150 < 0.05 μM) | COc1cc(S(N)(=O)=O)ccc1NCC#Cc1cc2c(NC3CCN(C[C@@H](O)CO)CC3)cccc2n1CC(F)(F)F [Compound 550A, (rac)-4-({3-[4-({1-[2,3-dihydroxypropyl]piperidin-4-yl}amino)-1-(2,2,2-trifluoroethyl)-1H-indol-2-yl]prop-2-yn-1-yl}amino)-3-methoxybenzene-1-sulfonamide] |
| + (+ = 0 μM ≤ SC150 < 0.05 μM) | CN(C)[C@H]1CC[C@H](Nc2cccc3c2cc(C#CCNc2ccc(S(N)(=O)=O)cc2OCC#N)n3CC(F)(F)F)CC1 [Compound 123A, 3-(cyanomethoxy)-4-{[3-(4-{[(1R,4R)-4-(dimethylamino)cyclohexyl]amino}-1-(2,2,2-trifluoroethyl)-1H-indol-2-yl)prop-2-yn-1-yl]amino}benzene-1-sulfonamide] |
| + (+ = 0 μM ≤ SC150 < 0.05 μM) | COCC(CN1CCC(Nc2cccc3c2cc(C#CCNc2ccc(S(N)(=O)=O)cc2OC)n3CC(F)(F)F)CC1)OC(=O)C(C)C (stereo not shown) [Compound 604A, 1-methoxy-3-{4-[(2-{3-[(2-methoxy-4-sulfamoylphenyl)amino]prop-1-yn-1-yl}-1-(2,2,2-trifluoroethyl)-1H-indol-4-yl)amino]piperidin-1-yl}propan-2-yl 2-methylpropanoate] |
| ++++ (++++ = 0.2 μM ≤ SC150 < 1 μM) | COc1cc(S(C)(=O)=O)cc(F)c1NCC#Cc1cc2c(NC3CCN(C)CC3)cccc2n1CC(F)(F)F [Compound 519A] |
| ++++ (++++ = 0.2 μM ≤ SC150 < 1 μM) | COc1cc(S(N)(=O)=O)ccc1NCC#Cc1cc2c(NCC(N)=O)cccc2n1CC(F)(F)F [Compound 3A, 2-[(2-{3-[(2-methoxy-4-sulfamoylphenyl)amino]prop-1-yn-1-yl}-1-(2,2,2-trifluoroethyl)-1H-indol-4-yl)amino]acetamide] |
